Measurements as given in patent publication US10828269B2, “Reducing muscle atrophy by administering astaxanthin” (FUJI CHEMICAL INDUSTRIES CO., LTD., priority 2004, dated 2020).

Assays:
Experiment in all cases: GeneChip gene expression in renal glomerulus
Type in all cases: in vivo, mouse
[1] = tested on: Blymphoma Mo-MLV insertion region 1; conditions: probe 1448733_at, 0.02% in diet, 12 weeks
Description: (§1) Type II diabetic female db/db mice and non-diabetic db/m were purchased from Clea Japan, Inc. Mice were bred under the conditions with a 12 hours light-dark cycle at a temperature of 21° C. to 25° C. For acclimation, mice were fed CE-2 (Clea Japan, Inc.) with free access to water for one week. The mice were divided into three groups each consisting of 8 mice (non-diabetic db/m, diabetic db/db, and astaxanthin-administered db/db) and each group was bred with feed ad libitum. Mice in astaxanthin-administered group were fed a diet in which 0.02% astaxanthin in terms of free astaxanthin was compounded with CE-2. Each group was bred for 12 weeks, and body weight, blood glucose levels, 8-OHdG levels in urine, albumin levels in urine, and kidney histopathology, were measured. Astaxanthin used here was AstaReal (registered trademark, Fuji Chemical Industry Co., Ltd.) 50F, which is oil composed of astaxanthin fatty acid ester and triglycerides and contains 5% astaxanthin in terms of free astaxanthin.
(§2) After the period of test breeding, kidney was removed and frozen at −80° C. Using an LM200 system (Olympus Corporation), the renal glomerulus was cut from kidney of mice while keeping low temperature. tRNA of renal glomerulus was extracted using tRNA extraction regent “Isogen” (produced by Nippon Gene Co., Ltd.), and then preparation of cRNA and hybridization were performed according to the Affymetrix GeneChip Eukaryotic Small Sample Target Labeling Assay Ver. II.
(§3) (1) Synthesis of first strand cDNA: 1 μL of total RNA solution and 1 of 5 μM T7-Oligo(dT) primer were mixed, heated at 70° C. for 6 minutes, and then cooled at 4° C. for 2 minutes. 3 μL of RT_Premix_1 (1.5 μL DEPC-treated water, 4 μL 5× First strand Buffer, 2 μL DTT (0.1 M), 1.5 μL dNTP Mix (10 mM), 1 μL RNase inhibitor (40 U/μL), and 2 μL Super-Script II (200 U/μL)) was added and reverse transcribed at 42° C. for 1 hour. The sample was heated at 70° C. for 10 minutes to inactivate Super Script II, and then cooled to 4° C. (2) Synthesis of second strand cDNA: 32.5 μl of SS_Premix_1 (91 μL DEPC-treated water, 30 μL 5× Second Strand Buffer, 3 μL dNTP (10 mM), 1 μL E. coli DNA ligase (10 U/μL); 4 μL E. coli DNA polymerase (10 U/μL), and 1 μL RNase H (2 U/μL)) was added to the first strand cDNA solution and allowed to react for 2 hours at 16° C. (3) To the resulting cDNA, was added 1 μL T4 DNA polymerase (5 U/μl) and allowed to react for 10 minutes at 16° C., and purified by ethanol precipitation. (4) In vitro transcription: To the dried double-stranded cDNA pellet, was added 10 μL of reagents (4 μL DEPC-treated water, 4 μL premixed NTPs, 1 μL 10× reaction buffer, and 1 μL 10× enzyme mix), and allowed to react at 37° C. in a water bath for 6 hours. (5) First cycle cRNA was purified using the RNeasy Mini Kit in accordance with the protocol in the handbook (QIAGEN). (6) Subsequently, for the amplification and labeling, the cRNA sample was mixed with random primers (0.2 μg/μL), treated at 70° C. for 10 minutes, cooled on ice for 2 minutes, 5 μL of RT_Premix_2 (5× First Strand Buffer, DTT (0.1 M), dNTP mix (10 mM), RNase inhibitor (40 U/μL), and SuperScript II (200 U/μL) was added, and allowed to react at 42° C. for 1 hour. (7) Next, Second Sstrand cDNA synthesis was carried out by adding 5 μM T7-Oligo(dT) promoter treating at 70° C. for 6 minutes, cooling at 4° C., and adding 62 μL of SS_Premix_2 (43 μL it DEPC-treated water, 15 μL 5× Second Strand Buffer, 1.5 μL dNTP mix (10 mM), and 2 μL E. coli DNA polymerase (10 U/μL)). (8) To the resulting cDNA, was treated added 1 μL of T4 DNA polymerase (5 U/μL), allowed to react at 16° C. for 10 minutes, and purified by ethanol precipitation. […]

[2] = tested on: FK506 binding protein 1a; conditions: probe 1448184_at (Table 4), 0.02% in diet, 12 weeks
Description: as §1, §2, §3

[3] = tested on: caspase 7; conditions: probe 1434099_at, 0.02% in diet, 12 weeks
Description: as §1, §2, §3

[4] = tested on: catenin beta; conditions: probe 1420811_a_at, 0.02% in diet, 12 weeks
Description: as §1, §2, §3

[5] = tested on: erythropoietin receptor; conditions: probe 1423344_at, 0.02% in diet, 12 weeks
Description: as §1, §2, §3

[6] = tested on: fibrosin 1; conditions: probe 1433816_at, 0.02% in diet, 12 weeks
Description: as §1, §2, §3

[7] = tested on: granulin; conditions: probe 1438629_x_at, 0.02% in diet, 12 weeks
Description: as §1, §2, §3

[8] = tested on: insulin like growth factor 2 receptor; conditions: probe 1424111_at, 0.02% in diet, 12 weeks
Description: as §1, §2, §3

[9] = tested on: isocitrate dehydrogenase 1 (NADP+), soluble; conditions: probe 1419821_s_at, 0.02% in diet, 12 weeks
Description: as §1, §2, §3

[10] = tested on: macrophage scavenger receptor 1; conditions: probe 1448061_at, 0.02% in diet, 12 weeks
Description: as §1, §2, §3

[11] = tested on: matrix metalloproteinase 8; conditions: probe 1449366_at, 0.02% in diet, 12 weeks
Description: as §1, §2, §3

[12] = tested on: peroxiredoxin 1; conditions: probe 1436691_x_at, 0.02% in diet, 12 weeks
Description: as §1, §2, §3

[13] = tested on: secreted posphoprotein 1; conditions: probe 1449254_at, 0.02% in diet, 12 weeks
Description: as §1, §2, §3

## CC1=C(/C=C/C(C)=C/C=C/C(C)=C/C=C/C=C(C)/C=C/C=C(C)/C=C/C2=C(C)C(=O)C(O)CC2(C)C)C(C)(C)CC(O)C1=O (stereo not drawn) [astaxanthin, 3,3′-dihydroxy-β,β-carotene-4,4′-dione]
[1]
  gene expression relative ratio db/db(Ax):db/db: 0.76
  gene expression relative ratio db/db(Ax):db/m: 8.00
[2]
  gene expression relative ratio db/db(Ax):db/db: 0.66
  gene expression relative ratio db/db(Ax):db/m: 6.50
[3]
  gene expression relative ratio db/db(Ax):db/db: 0.87
  gene expression relative ratio db/db(Ax):db/m: 68.59
[4]
  gene expression relative ratio db/db(Ax):db/db: 0.38
  gene expression relative ratio db/db(Ax):db/m: 12.13
[5]
  gene expression relative ratio db/db(Ax):db/db: 2.30
  gene expression relative ratio db/db(Ax):db/m: 0.71
[6]
  gene expression relative ratio db/db(Ax):db/db: 0.31
  gene expression relative ratio db/db(Ax):db/m: 8
[7]
  gene expression relative ratio db/db(Ax):db/db: 0.19
  gene expression relative ratio db/db(Ax):db/m: 3.03
[8]
  gene expression intensity ratio db/db(Ax):db/db: 0.87
  gene expression intensity ratio db/db(Ax):db/m: 11.31
[9]
  gene expression relative ratio db/db(Ax):db/db: 0.33
  gene expression relative ratio db/db(Ax):db/m: 6.96
[10]
  gene expression intensity ratio db/db(Ax):db/db: 0.25
  gene expression intensity ratio db/db(Ax):db/m: 1.32
[11]
  gene expression intensity ratio db/db(Ax):db/db: 2.00
  gene expression intensity ratio db/db(Ax):db/m: 0.62
[12]
  gene expression relative ratio db/db(Ax):db/db: 0.14
  gene expression relative ratio db/db(Ax):db/m: 9.19
[13]
  gene expression relative ratio db/db(Ax):db/db: 0.13
  gene expression relative ratio db/db(Ax):db/m: 0.66
